Laboratory results taken from patent US9067963B2, “N-alkyl 2-(disubstituted)alkynyladenosine-5-uronamides as A2A agonists” (Lewis and Clark Pharmaceuticals, Inc., priority 2012, dated 2015).

Biological target: A2A adenosine receptors (Homo sapiens, UniProt P29274)
Assay: A2A Ki binding (methodology of Murphree et al., Mol Pharmacol 2002, 61, 455-62)
Text: The Ki values were obtained using the methodology described by Murphree et al. in Mol Pharmacol 2002, 61, 455-62.

Chain of A2A adenosine receptors (P29274 whole entry): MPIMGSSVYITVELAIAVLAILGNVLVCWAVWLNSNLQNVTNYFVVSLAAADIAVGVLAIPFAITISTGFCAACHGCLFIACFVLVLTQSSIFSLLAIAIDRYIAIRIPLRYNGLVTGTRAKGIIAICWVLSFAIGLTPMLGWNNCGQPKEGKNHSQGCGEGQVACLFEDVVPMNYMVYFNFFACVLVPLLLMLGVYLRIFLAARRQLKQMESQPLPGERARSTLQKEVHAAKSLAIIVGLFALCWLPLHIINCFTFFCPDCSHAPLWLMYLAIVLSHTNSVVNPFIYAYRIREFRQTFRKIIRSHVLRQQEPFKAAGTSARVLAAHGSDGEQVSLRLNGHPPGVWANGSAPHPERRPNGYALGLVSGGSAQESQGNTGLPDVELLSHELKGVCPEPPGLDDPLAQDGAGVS

SMILES | Ki [nM]
CNC(=O)[C@H]1O[C@@H](n2cnc3c(N)nc(C#CCN(C)C(=O)c4ccc(C(F)(F)F)nc4)nc32)C(O)[C@@H]1O (stereo partly drawn) [Example 1, N-Methyl 2-(3-{N-methyl-1-[6-(trifluoromethyl)pyridin-3-yl]formamido}prop-1-yn-1-yl)adenosine-5′-uronamide] | < 1
CN(CC#Cc1nc(N)c2ncn([C@@H]3O[C@H](C(=O)NC4CC4)[C@@H](O)C3O)c2n1)C(=O)c1ccc(C(F)(F)F)nc1 (stereo partly drawn) [Example 2, N-Cyclopropyl 2-(3-{N-methyl-1-[6-(trifluoromethyl)pyridin-3-yl]formamido}prop-1-yn-1-yl)adenosine-5′-uronamide] | < 1
Nc1nc(C#CCN(CC2CC2)C(=O)c2ccccc2)nc2c1ncn2[C@@H]1O[C@H](C(=O)NC2CC2)[C@@H](O)C1O (stereo partly drawn) [Example 3, N-Cyclopropyl 2-{3-[N-(cyclopropylmethyl)benzamido]propyn-1-yl}adenosine-5′-uronamide] | < 1
Nc1nc(C#CCN(C(=O)c2ccccc2)C2CCC2)nc2c1ncn2[C@@H]1O[C@H](C(=O)NC2CC2)[C@@H](O)C1O (stereo partly drawn) [Example 4, N-Cyclopropyl 2-{3-[N-(cyclobutyl)benzamido]propyn-1-yl}adenosine-5′-uronamide] | < 1
Nc1nc(C#CCNC(=O)c2ccccc2)nc2c1ncn2[C@@H]1O[C@H](C(=O)NC2CC2)[C@@H](O)C1O (stereo partly drawn) [Example 5, N-Cyclopropyl 2-{3-[benzamido]propyn-1-yl}adenosine-5′-uronamide] | 1 to 50
CNC(=O)[C@H]1O[C@@H](n2cnc3c(N)nc(C#CCN(C)C(=O)c4ccc(F)nc4)nc32)C(O)[C@@H]1O (stereo partly drawn) [Example 6, N-Methyl 2-{3-[N-methyl-1-(6-fluoropyridin-3-yl)formamido]prop-1-yn-1-yl}adenosine-5′-uronamide] | < 1
CN(CC#Cc1nc(N)c2ncn([C@@H]3O[C@H](C(=O)NC4CC4)[C@@H](O)C3O)c2n1)C(=O)c1ccc(F)nc1 (stereo partly drawn) [Example 7, N-Cyclopropyl 2-{3-[N-methyl-1-(6-fluoropyridin-3-yl)formamido]prop-1-yn-1-yl}adenosine-5′-uronamide] | 1 to 50
CNC(=O)[C@H]1O[C@@H](n2cnc3c(N)nc(C#CCN(C)C(=O)c4cccnc4)nc32)C(O)[C@@H]1O (stereo partly drawn) [Example 9, N-Methyl 2-{3-[N-methylnicotinamido]propyn-1-yl}adenosine-5′-uronamide] | 1 to 50
CNC(=O)[C@H]1O[C@@H](n2cnc3c(N)nc(C#CCN(C)C(=O)c4ccncc4)nc32)C(O)[C@@H]1O (stereo partly drawn) [Example 10, N-Methyl 2-{3-[N-methylisonicotinamido]propyn-1-yl}adenosine-5′-uronamide] | 1 to 50
CNC(=O)[C@H]1O[C@@H](n2cnc3c(N)nc(C#CCN(CCOC)C(=O)c4ccc(F)nc4)nc32)C(O)[C@@H]1O (stereo partly drawn) [Example 11, N-Methyl 2-{3-[6-fluoro-N-(2-methoxyethyl)nicotinamido]propyn-1-yl}adenosine-5′-uronamide] | < 1
CNC(=O)[C@H]1O[C@@H](n2cnc3c(N)nc(C#CCN(CCOC)C(=O)c4cccs4)nc32)C(O)[C@@H]1O (stereo partly drawn) [Example 12, N-Methyl 2-{3-[N-(2-methoxyethyl)thiophene-2-carboxamido]propyn-1-yl}adenosine-5′-uronamide] | < 1
CNC(=O)[C@H]1O[C@@H](n2cnc3c(N)nc(C#CCN(C)C(=O)c4ccccc4)nc32)C(O)[C@@H]1O (stereo partly drawn) [Example 13, N-Methyl 2-{3-[N-methylbenzamido]propyn-1-yl}adenosine-5′-uronamide] | < 1
Nc1nc(C#CCN(C(=O)Cc2ccccc2)C2CC2)nc2c1ncn2[C@@H]1O[C@H](C(=O)NC2CC2)[C@@H](O)C1O (stereo partly drawn) [Example 16] | 1 to 50
Nc1nc(C#CCN(C(=O)c2ccc(Cl)nc2)C2CC2)nc2c1ncn2[C@@H]1O[C@H](C(=O)NC2CC2)[C@@H](O)C1O (stereo partly drawn) [Example 24] | < 1
Nc1nc(C#CCN(C(=O)c2ccccc2)C2CC2)nc2c1ncn2[C@@H]1O[C@H](C(=O)NC2CC2)[C@@H](O)C1O (stereo partly drawn) [Example 25] | < 1
CCNC(=O)[C@H]1O[C@@H](n2cnc3c(N)nc(C#CCN(C)C(=O)c4ccc(C(F)(F)F)nc4)nc32)C(O)[C@@H]1O (stereo partly drawn) [Example 28] | < 1
CNC(=O)[C@H]1O[C@@H](n2cnc3c(N)nc(C#CCN(C)C(=O)c4ccc(OC)c(F)c4)nc32)C(O)[C@@H]1O (stereo partly drawn) [Example 29] | < 1
CNC(=O)[C@H]1O[C@@H](n2cnc3c(N)nc(C#CCN(C(=O)c4ccccc4)C4CCCC4)nc32)C(O)[C@@H]1O (stereo partly drawn) [Example 31] | < 1
CNC(=O)[C@H]1O[C@@H](n2cnc3c(N)nc(C#CCN(CC(C)C)C(=O)c4ccccc4)nc32)C(O)[C@@H]1O (stereo partly drawn) [Example 32] | < 1
CNC(=O)[C@H]1O[C@@H](n2cnc3c(N)nc(C#CCN(Cc4cccs4)C(=O)c4ccccc4)nc32)C(O)[C@@H]1O (stereo partly drawn) [Example 34] | 1 to 50

Results, then the molecule that gave them:

Ki [nM] | SMILES
< 1 | CNC(=O)[C@H]1O[C@@H](n2cnc3c(N)nc(C#CCN(C(=O)c4ccccc4)C4CCC4)nc32)C(O)[C@@H]1O (stereo partly drawn) [Example 8, N-Methyl 2-{3-[N-(cyclobutyl)benzamido]propyn-1-yl}adenosine-5′-uronamide]
< 1 | CNC(=O)[C@H]1O[C@@H](n2cnc3c(N)nc(C#CCN(CCOC)C(=O)c4ccccc4)nc32)C(O)[C@@H]1O (stereo partly drawn) [Example 14, N-Methyl 2-{3-[N-(2-methoxyethyl)benzamido]propyn-1-yl}adenosine-5′-uronamide]
< 1 | CNC(=O)[C@H]1O[C@@H](n2cnc3c(N)nc(C#CCN(C)C(=O)c4ccc(F)cc4)nc32)C(O)[C@@H]1O (stereo partly drawn) [Example 15, N-Methyl 2-{3-[4-fluoro-N-methylbenzamido]propyn-1-yl}adenosine-5′-uronamide]
1 to 50 | CNC(=O)[C@H]1O[C@@H](n2cnc3c(N)nc(C#CCN(Cc4ccc(OC)cc4)C(=O)C4CC4)nc32)C(O)[C@@H]1O (stereo partly drawn) [Example 17]
< 1 | COc1ccc(CN(CC#Cc2nc(N)c3ncn([C@@H]4O[C@H](C(=O)NC5CC5)[C@@H](O)C4O)c3n2)C(=O)C2CC2)cc1 (stereo partly drawn) [Example 18]
< 1 | CNC(=O)[C@H]1O[C@@H](n2cnc3c(N)nc(C#CCN(C(=O)c4ccc(F)cc4)C4CCC4)nc32)C(O)[C@@H]1O (stereo partly drawn) [Example 19]
< 1 | CNC(=O)[C@H]1O[C@@H](n2cnc3c(N)nc(C#CCN(C(=O)c4cccc(F)c4)C4CCC4)nc32)C(O)[C@@H]1O (stereo partly drawn) [Example 20]
< 1 | CNC(=O)[C@H]1O[C@@H](n2cnc3c(N)nc(C#CCN(C(=O)c4ccc(OC)c(F)c4)C4CCC4)nc32)C(O)[C@@H]1O (stereo partly drawn) [Example 21]
< 1 | CNC(=O)[C@H]1O[C@@H](n2cnc3c(N)nc(C#CCN(C(=O)c4ccc(Cl)nc4)C4CC4)nc32)C(O)[C@@H]1O (stereo partly drawn) [Example 22]
> 50 | CNC(=O)[C@H]1O[C@@H](n2cnc3c(N)nc(C#CCN(C(=O)c4ccccc4)C4CC4)nc32)C(O)[C@@H]1O (stereo partly drawn) [Example 23]
< 1 | CCNC(=O)[C@H]1O[C@@H](n2cnc3c(N)nc(C#CCN(C(=O)c4ccc(Cl)nc4)C4CC4)nc32)C(O)[C@@H]1O (stereo partly drawn) [Example 26]
1 to 50 | CCNC(=O)[C@H]1O[C@@H](n2cnc3c(N)nc(C#CCN(C(=O)Cc4ccccc4)C4CC4)nc32)C(O)[C@@H]1O (stereo partly drawn) [Example 27]
< 1 | CNC(=O)[C@H]1O[C@@H](n2cnc3c(N)nc(C#CCN(C(=O)c4ccc(Cl)cc4)C4CCC4)nc32)C(O)[C@@H]1O (stereo partly drawn) [Example 30]
< 1 | CNC(=O)[C@H]1O[C@@H](n2cnc3c(N)nc(C#CCN(C)C(=O)c4ccc(C#N)cc4)nc32)C(O)[C@@H]1O (stereo partly drawn) [Example 33]
< 1 | CCNC(=O)[C@H]1O[C@@H](n2cnc3c(N)nc(C#CCN(C)C(=O)c4ccc(F)nc4)nc32)C(O)[C@@H]1O (stereo partly drawn) [Example 35]
1 to 50 | CCNC(=O)[C@H]1O[C@@H](n2cnc3c(N)nc(C#CCN(Cc4ccc(OC)cc4)C(=O)C4CC4)nc32)C(O)[C@@H]1O (stereo partly drawn) [Example 36]
